Data from US6235736A, “3-anilino-2-cycloalkenone derivatives” (Nikken Chemicals Co., Ltd., priority 1997, dated 2001).

Experiments:
[1] = tested on: Type IV PDE; test: PDE IV inhibitory activity (isozyme partially purified from rat neutrophils, 3H-cAMP substrate); type: biochemical; details: rat neutrophil PDE IV, 30° C., 30 minutes, read-out: PDE IV inhibiting action IC50
Summary of the method: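 Rat neutrophil PDE IV partially purified by ion-exchange chromatography; incubated with compound in 50 mM Tris-HCl, 5 mM MgCl2 and 3H-cAMP substrate, 30 °C for 30 min, stopped by boiling. Product converted to 3H-adenosine by 5'-nucleotidase, separated by ion exchange, counted by scintillation; IC50 in M.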

[2] = tested on: DNFB contact-type dermatitis in mouse; test: Allergic contact dermatitis assay (DNFB); type: in vivo, mouse (ICR male); details: applied 1 hour before and 5 hours after inducing ear edema; 24 hours
Procedure: 8 to 9 week old ICR type male mice were divided into groups of 8 to 9 each for use. The shaved skin of the ventral surface of each of the mice was applied with a 0.5% DNFB (2,4-dinitrofluorobenzene)acetone-olive oil solution (v/v=4/1) in an amount of 25 μl/day over 2 days to sensitize it. Four days after the second day of sensitization, a 0.2% DNFB acetone-olive oil solution was applied to the ear in an amount of 25 μl to induce contact-type dermatitis. After 24 hours, the thickness of the ear was measured using a dial thickness gauge and the difference with the value before inducing the edema was found. The test compound was dissolved in 25 μl of tetrahydrofuran-methanol (mixture ratio 1:1) and applied two time, that is, 1 hour before inducing the ear edema and 5 hours after it.
In Table 6, the effect of the compound was expressed by the ED50.

[3] = tested on: TPA induced ear edema in mouse; test: TPA induced mouse ear edema assay; type: in vivo, mouse (male ICR); details: 0.1 mg applied to right ear immediately after TPA; 6 hour
Summary of the method: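 Male ICR mice (5 weeks, n = 7–8) received 2 μg TPA in acetone on the right ear, then 0.1 mg compound in THF–methanol (1:1) topically straight after. At 6 h, ear punches were weighed and % inhibition of edema was calculated.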

[4] = tested on: antigen-induced bronchoconstriction in guinea-pig; test: Inhibitory effect on antigen-induced bronchospasm (anti-asthmatic action); type: in vivo, guinea-pig (Hartley male); details: Cavia porcellus; intravenous, 10 minutes before 0.2 mg/kg OA challenge; read-out: Action suppressing antigen induced bronchoconstriction ED50
Procedure: Hartley male guinea-pig was sensitized by intramuscular administration of 35 mg Ovalbumin (OA) at first day and fourth day. After 25 to 29 days of first sensitization, trachial canula was introduced in the guinea pig anesthetized with pentobarbital and artificial ventilation was performed. The overflow of the ventilation was measured by the Konzett Roessler method while 0.2 mg/kg OA were administered intravenously. The test compound was dissolved in polyethylene glycol 400 and intravenously administered 10 minutes before OA challenge.

[5] = tested on: rat neutrophils; test: Inhibition of superoxide anion release from rat neutrophils (chemiluminescence); type: cell-based; details: Neutrophil, stimulated with 0.3 micro M A23187, read-out: Action suppressing release of superoxide anions from rat neutrophils IC50
Procedure: The release of super oxide anions was measured so as to study the inhibitory effects of the compound of the present invention on inflammatory leukocytes, that is, neutrophils.
Blood sample was collected from Wister rats anestetized with ether. It was superposed on a blood cell separation solution (Polymorphoprep 1.113, Naicomed Farm) and the neutrophils were separated by centrifugation. The neutrophils were resuspended in a Hank's balanced salt solution at a concentration of 0.5×10^4 cells/ml. 0.1 mM of lusigenin and the test substance dissolved in DMSO were added to 2 ml of the cell suspension. The chemiluminescence generated by stimulation of 0.3 maicro M calcium ionophore A23187 was measured by a chemiluminescence reader so as to evaluate the release of super oxide anions.

[6] = tested on: type IV PDE; details: background art (Kokai No. 50-157360); cited from earlier work

COc1ccc(NC2=C(C)C(=O)CC2)cc1OC1CCCCC1 [Compound No. 14, 3-(3-cyclohexyloxy-4-methoxyanilino)-2-methyl-2-cyclopenten-1-one]
IC50 [1]: 2400 nM | ED50 (allergic contact dermatitis, ear edema) [2]: 16 μg/site | % Inhibition of ear edema [3]: 73.4%

COc1ccc(NC2=CC(=O)CC2)cc1OC1Cc2ccccc2C1 [Compound No. 9, 3-[3-(2-indanyloxy)-4-methoxyanilino]-2-cyclopenten-1-one]
IC50 [1]: 690 nM | ED50 [4]: 5.5 mg/kg | ED50 (allergic contact dermatitis, ear edema) [2]: 94 μg/site | % Inhibition of ear edema [3]: 72.3%

COc1ccc(NC2=CC(=O)N(Cc3ccccc3)CC2)cc1OC1CCCC1 [Compound No. 22, 1-benzyl-4-(3-cyclopentyloxy-4-methoxyanilino)-1,2,5,6-tetrahydropyridin-2-one]
IC50 [5]: 3300 nM | IC50 [1]: 24000 nM | ED50 (allergic contact dermatitis, ear edema) [2]: 32 μg/site | % Inhibition of ear edema [3]: 76.8%

COc1ccc(C2CNC(=O)C2)cc1OC1CCCC1 (stereo not drawn) [Rolipram]
specific inhibitory activity against type IV PDE (in words) [6]: specific inhibitory activity against type IV PDE
